Measured values reported in US12509446B2, “FYN and VEGFR2 kinase inhibitors” (ROTTAPHARM BIOTECH S.R.L., priority 2019, dated 2025).

Assays:
VEGFR2 = VEGFR2 (Homo sapiens (Human), UniProt P35968); experiment: In vitro VEGFR2 kinase activity assay (Eurofins Cerep); assay type: biochemical; details: read-out: VEGFR2 KINASE INHIBITION IC50
Description: The VEGFR2 kinase inhibitory activity of representative examples of compounds of Formula (I) assays was evaluated in Eurofins Cerep (France). The concentration range of the inhibitors under investigation was from 10^−8 M up to 10^−5 M final concentration. Some compounds were re-tested in a concentration-range starting from 10^−9 M. The results are expressed as a percent of control activity (in the absence of test compound) and the IC50 values were determined by non-linear regression analysis of the inhibition/concentration curves generated with mean replicate values.

COX2 = experiment: Gene expression in rat articular chondrocytes under IL-1β stimulation, COX2; assay type: cell-based; design: key to COX2 gene expression, no effect: ne: no effect
IL-6 = experiment: Gene expression in rat articular chondrocytes under IL-1β stimulation, IL-6; assay type: cell-based; details: for IL-6 gene expression, percentage of inhibitory effect at the highest non toxic concentration: 6 h
Description: (§1) For gene expression analysis, 10 days after plating, the medium was changed and substituted with DMEM GlutaMAX I 0.4% to synchronize the cells. The cells were then co-treated in DMEM GlutaMAX I 0.4% with different concentrations of the test compounds and […] at a final concentration of 2 ng/ml for 6 h and 24 h. The test compound concentrations used have been chosen on the basis of the toxicity data.
(§2) At the end of the incubation, the supernatant was discarded, the cell were washed with cold PBS1X and scraped with 200 μl of RNA lysis buffer 1X (Nucleic Acid Purification Lysis Solution, Applied Biosystems).
(§3) Total RNA was purified using ABI Prism™ 6100 Nucleic Acid PrepStation (Applied Biosystems) following manufacturer's instructions.
(§4) Total RNA was retrotranscribed using the High-Capacity cDNA Archive Kit (Applied Biosystems-Thermo Fisher Scientific) following manufacturer's instructions.
(§5) The specific probes and primers for RealTime PCR were from Applied Biosystems (Thermo Fisher Scientific) as Assays-on-Demand™, while the probe and primers for the endogenous control 18S was a PDAR (Pre-Developed TaqMan® Assay Reagents—Applied Biosystems-Thermo Fisher Scientific).
(§6) The assays were designed to amplify target cDNA without amplifying genomic DNA.
(§7) Gene expression analysis for IL-1β, IL-6 and ADAMTS-5 were performed at 6 h incubation, while the gene expression analysis for MMP3, MMP13 and COX2 were performed at 24 h incubation.
(§8) For each compound the maximal concentration tested was dependent on the toxicity results obtained on primary rat chondrocytes.
(§9) The data analysis, with the normalisation on the amplified values for the 18S was done following the specific instruction of Applied Biosystems for the relative quantification of gene expression.

[1] = tested on: rat primary articular chondrocytes; experiment: Toxicity analysis (MTT) in rat primary chondrocytes; details: for First toxic concentration at 24 h: rat primary chondrocytes
MMP3 = experiment: Gene expression in rat articular chondrocytes under IL-1β stimulation, MMP3; assay type: cell-based; design: key to MMP3 gene expression, no effect: ne: no effect; details: 24 h
Description: as §1, §2, §3, §4, §5, §6, §7, §8, §9

IL-1β = experiment: Gene expression in rat articular chondrocytes under IL-1β stimulation, IL-1β; assay type: cell-based; details: for IL-1β gene expression, percentage of inhibitory effect at the highest non toxic concentration: 6 h
Description: as §1, §2, §3, §4, §5, §6, §7, §8, §9

Fyn = Fyn (Homo sapiens (Human), UniProt P06241); experiment: Z′-LYTE in vitro Fyn kinase activity assay; assay type: biochemical; details: ATP 50 μM; read-out: FYN KINASE INHIBITION IC50
Chain of Fyn (P06241 whole entry): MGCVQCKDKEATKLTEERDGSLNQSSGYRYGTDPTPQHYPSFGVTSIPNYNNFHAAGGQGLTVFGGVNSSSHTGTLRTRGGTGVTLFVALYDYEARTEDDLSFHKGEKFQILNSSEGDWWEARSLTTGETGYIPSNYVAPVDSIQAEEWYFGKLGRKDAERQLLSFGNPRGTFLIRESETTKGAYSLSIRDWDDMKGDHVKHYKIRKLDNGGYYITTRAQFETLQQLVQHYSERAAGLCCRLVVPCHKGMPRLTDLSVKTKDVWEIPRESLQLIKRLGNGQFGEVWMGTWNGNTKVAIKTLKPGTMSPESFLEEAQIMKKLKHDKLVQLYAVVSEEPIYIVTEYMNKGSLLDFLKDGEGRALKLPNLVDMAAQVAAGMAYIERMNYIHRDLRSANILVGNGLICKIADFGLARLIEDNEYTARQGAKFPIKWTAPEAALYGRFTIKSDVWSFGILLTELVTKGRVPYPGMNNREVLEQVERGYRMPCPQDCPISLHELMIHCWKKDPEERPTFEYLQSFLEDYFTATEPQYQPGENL
Description: The Fyn kinase inhibitory activity of representative examples of compounds of Formula (1) was evaluated by Z′-LYTE™ Kinase Assay Platform (Invitrogen). Compounds were evaluated towards active Fyn (full length active, molecular weight 87.1 kDa; Invitrogen). […] Samples representing the 0% inhibition (or total enzymatic activity) were in the presence of compound diluent (1% DMSO final in Reaction Buffer 50 mMHepes, 10 mM MgCl2, 1 mM EGTA, 0.01% Brij-35, pH 7.5). The kinase reaction was carried out in a total volume of 10 μl, for 60 minutes at 25° C. The 0% Phosphorylation (i.e. no ATP) and 100% Phosphorylation Assay Controls, included in each plate, allowed to calculate the percent phosphorylation achieved in the specific reaction well. Results are expressed as percentage of inhibition and the IC50 values were calculated by non-linear curve fitting using GraphPad™ Prism software (version 6 for Windows).

ADAMTS-5 = experiment: Gene expression in rat articular chondrocytes under IL-1β stimulation, ADAMTS-5; assay type: cell-based; details: for ADAMTS-5 gene expression, percentage of inhibitory effect at the highest non toxic concentration: 6 h; for IC50: Rattus norvegicus, Chondrocyte, 6 h incubation
Description: as §1, §2, §3, §4, §5, §6, §7, §8, §9

[2] = tested on: bovine nasal septum cartilage; experiment: Inhibition of cartilage degradation (GAG release) induced by IL-1α in a bovine in vitro model; assay type: cell-based; design: key to Bovine cartilage degradation induced by IL-1α, no effect: ne: no effect
Description: Nasal septum cartilage was collected from an eight months-old male bovine in a local slaughterhouse.
Tissue was sprayed with ethanol 70% and immediately put in sterile PBS with Antibiotic-Antimycotic stabilized solution (PBS-AASS). It was cut in order to obtain small punches (diameter 2 mm, 1 mm-thick). washed with sterile PBS-AASS, the slices were transferred in a 96X well plate (one piece per well) in DMEM 10%+AASS. 48 h later the cartilage was stimulated in white DMEM+0.1% BSA+AASS with IL-1α […] in the absence or presence of the studied compounds.
The compounds concentration used in this analysis was chosen depending on the toxicity results obtained in rat primary chondrocytes at 48 h of incubation.
After 48 h stimulation, the culture medium was collected and stored at −80° C. The cartilage punches were digested with papain at 65° C. for 2 h in phosphate buffer (0.05M pH 6.5 with 2 mM N-acetil-L-cisteine and 2 mM EDTA).
The glycosaminoglycan (GAG) determination was done by a colorimetric assay with 1,9 dimethyl methylene blue (DMB).
Digested cartilage samples were diluted in PBS-BSA 1%. To 100 μl of diluted samples or standard we added 100 μl DMB 2X. After 5-20 min incubation the samples were read at 590 nm (Titertek Multiscan Plus).
The cartilage degradation induced by IL-1α was expressed as: GAG (medium)/total GAG (medium+cartilage)×100

NF-kB = experiment: Gene reporter (GR) assay, NF-kB activation after TNFα in JB6 Cl 41-5a (P+) cells; assay type: cell-based, murine; details: Mus musculus, JB6 Cl 41-5a, TNFα 2 ng/ml, non toxic concentrations; read-out: Gene reporter (GR) inhibition IC50
Text: To determine if the compounds of the invention were active also in a cellular model, a gene reporter assay was established in a cell line (JB6 Cl 41-5a (P+)) know to activate Fyn kinase via an inflammatory stimuli (TNFα). GR assay measures the activation of the nuclear transcription factor NF-kB, situated down-stream the Fyn activation pathway. Products active in this analysis has to penetrate in the cell and inhibit the activation pathway of NF-kB.
The murine epithelial cell line JB6 Cl 41-5a (P+) (ATCC® Cat. #CRL-2010) was stably transfected with the pGL4.32[luc2P/NFkB-RE/Hygro] vector (Promega). Clonal selection was achieved by limiting with 80 μg/ml Hygromycin B. The clones were tested for their response to TNFα stimulus.
JB6(P+) NFkB-RE-luc2P transfected cells were used for the analysis of NF-kB activity modulation, after TNFα stimulation, by Fyn-inhibitors.
Cells were pre-treated with the different compounds for 1 h and then stimulated with 2 ng/ml TNFα for 4 h. Each tested condition was analyzed in quadruplicate.
The luciferase analysis was performed with ONE-Glo™+ToxLuciferase Reporter and Cell Viability Assay kit (Promega).

MMP13 = experiment: Gene expression in rat articular chondrocytes under IL-1β stimulation, MMP13; assay type: cell-based; design: key to MMP13 gene expression, no effect: ne: no effect; details: 24 h
Description: as §1, §2, §3, §4, §5, §6, §7, §8, §9

[3] = Rattus norvegicus, Chondrocyte, 6 h incubation

Chain of VEGFR2 (P35968 20-1356): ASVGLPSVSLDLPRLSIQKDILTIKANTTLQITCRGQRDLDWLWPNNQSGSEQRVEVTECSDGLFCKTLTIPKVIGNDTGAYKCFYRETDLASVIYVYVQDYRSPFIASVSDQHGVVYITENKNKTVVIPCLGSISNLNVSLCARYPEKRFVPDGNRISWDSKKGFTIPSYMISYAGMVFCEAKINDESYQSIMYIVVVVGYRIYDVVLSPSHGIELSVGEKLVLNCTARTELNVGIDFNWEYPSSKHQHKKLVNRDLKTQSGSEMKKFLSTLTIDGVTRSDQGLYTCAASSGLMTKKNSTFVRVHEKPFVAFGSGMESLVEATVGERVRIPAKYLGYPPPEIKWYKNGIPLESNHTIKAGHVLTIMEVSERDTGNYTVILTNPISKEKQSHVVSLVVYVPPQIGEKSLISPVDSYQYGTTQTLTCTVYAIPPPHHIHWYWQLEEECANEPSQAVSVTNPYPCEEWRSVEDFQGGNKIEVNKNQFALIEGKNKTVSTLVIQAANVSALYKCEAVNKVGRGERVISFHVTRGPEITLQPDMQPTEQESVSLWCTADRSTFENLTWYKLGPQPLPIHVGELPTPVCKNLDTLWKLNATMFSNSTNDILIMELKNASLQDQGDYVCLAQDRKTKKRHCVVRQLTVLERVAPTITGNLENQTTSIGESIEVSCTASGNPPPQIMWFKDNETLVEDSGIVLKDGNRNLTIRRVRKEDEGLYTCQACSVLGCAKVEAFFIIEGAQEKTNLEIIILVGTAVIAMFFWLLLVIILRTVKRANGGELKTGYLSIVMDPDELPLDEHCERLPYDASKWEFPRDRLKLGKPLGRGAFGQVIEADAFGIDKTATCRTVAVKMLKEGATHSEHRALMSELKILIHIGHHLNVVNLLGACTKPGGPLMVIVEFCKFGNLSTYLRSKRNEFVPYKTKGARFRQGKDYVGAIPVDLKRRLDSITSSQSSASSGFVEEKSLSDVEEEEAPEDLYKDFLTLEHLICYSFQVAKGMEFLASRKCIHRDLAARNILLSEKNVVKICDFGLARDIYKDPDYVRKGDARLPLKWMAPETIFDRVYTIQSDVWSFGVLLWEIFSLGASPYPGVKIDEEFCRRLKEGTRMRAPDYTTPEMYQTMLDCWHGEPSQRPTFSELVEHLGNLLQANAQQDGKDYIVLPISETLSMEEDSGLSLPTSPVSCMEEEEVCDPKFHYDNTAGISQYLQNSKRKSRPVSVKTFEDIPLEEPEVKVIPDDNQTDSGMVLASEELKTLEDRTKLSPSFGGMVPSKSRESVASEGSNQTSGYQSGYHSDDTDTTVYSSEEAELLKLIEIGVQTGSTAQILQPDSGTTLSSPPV

| SMILES | IC50 (VEGFR2) [nM] | IC50 (Fyn) [nM] | COX2 gene expression, percentage of inhibitory effect at the highest non toxic concentration (COX2; 10 μM, 24 h) | IL-6 gene expression, percentage of inhibitory effect at the highest non toxic concentration (IL-6; 10 μM) | First toxic concentration at 48 h in rat primary chondrocytes [1] [µM] | First toxic concentration at 24 h [1] [µM] | MMP3 gene expression, percentage of inhibitory effect at the highest non toxic concentration (MMP3; 10 μM) | IL-1β gene expression, percentage of inhibitory effect at the highest non toxic concentration (IL-1β; 10 μM) | IC50 (NF-kB) [nM] | MMP13 gene expression, percentage of inhibitory effect at the highest non toxic concentration (MMP13; 10 μM) | IC50 (ADAMTS-5) [nM] | Bovine cartilage degradation induced by IL-1α, no effect [2] | MMP3 gene expression, no effect (MMP3) | also measured |
| --- | --- | --- | --- | --- | --- | --- | --- | --- | --- | --- | --- | --- | --- | --- |
| Cc1ccc(NC(=O)c2ccnc(C(C)(C)C#N)c2)cc1CCc1cc(Nc2cnccn2)[nH]n1 [Compound 2, 2-(2-cyanopropan-2-yl)-N-(4-methyl-3-(2-(5-(pyrazin-2-ylamino)-1H-pyrazol-3-yl)ethyl)phenyl)isonicotinamide] | < 10 | 10 | 10 μM 100% | 10 μM 100% | >10 | >10 | 10 μM 92% | 10 μM 100% | 312 | 10 μM 99% |  |  |  | ADAMTS-5 gene expression, percentage of inhibitory effect at the highest non toxic concentration (ADAMTS-5; 10 μM): 10 μM 94%; IC50 ([2]; Bos taurus, head says nM, cells print μM, 48 h stimulation, read-out: Inhibitory effect on bovine cartilage degradation induced by IL-1α, IC50): 800 nM |
| CCNC1(c2ccc(C(=O)Nc3ccc(C)c(CCc4cc(Nc5cnccn5)[nH]n4)c3)cc2)CC1 [Compound 4, 4-(1-(ethylamino)cyclopropyl)-N-(4-methyl-3-(2-(5-(pyrazin-2-ylamino)-1H-pyrazol-3-yl)ethyl)phenyl)benzamide] | < 10 | 21 |  | 10 μM 93% | 3 | >10 | 10 μM 55% |  | 2230 | 10 μM 84% | 3000 | ne |  | IC50 (COX2; Rattus norvegicus, Chondrocyte, 24 h incubation): 1400 nM; IC50 (IL-1β; [3]): 1700 nM |
| Cc1ccc(NC(=O)c2ccnc(C(C)(C)O)c2)cc1CCc1cc(Nc2cnccn2)[nH]n1 [Compound 5, 2-(2-hydroxypropan-2-yl)-N-(4-methyl-3-(2-(5-(pyrazin-2-ylamino)-1H-pyrazol-3-yl)ethyl)phenyl)isonicotinamide] | < 10 | 6 | 10 μM 43% | 10 μM 89% | 10 | >10 |  | 10 μM 84% | 3260 | 10 μM 32% | 5500 |  | ne | inhibition at 3 µM ([2]; Bos taurus, 3 μM, read-out: Bovine cartilage degradation induced by IL-1α, % inhibitory effect at max concentration): 79% |

The next lines start with results.

| IC50 (VEGFR2) [nM] | IC50 (Fyn) [nM] | SMILES | COX2 gene expression, percentage of inhibitory effect at the highest non toxic concentration (COX2; 10 μM, 24 h) | IL-6 gene expression, percentage of inhibitory effect at the highest non toxic concentration (IL-6; 10 μM) | First toxic concentration at 48 h in rat primary chondrocytes [1] [µM] | First toxic concentration at 24 h [1] [µM] | MMP3 gene expression, percentage of inhibitory effect at the highest non toxic concentration (MMP3; 10 μM) | IL-1β gene expression, percentage of inhibitory effect at the highest non toxic concentration (IL-1β; 10 μM) | IC50 (NF-kB) [nM] | MMP13 gene expression, percentage of inhibitory effect at the highest non toxic concentration (MMP13; 10 μM) | IC50 (ADAMTS-5) [nM] | Bovine cartilage degradation induced by IL-1α, no effect [2] | MMP3 gene expression, no effect (MMP3) | also measured |
| --- | --- | --- | --- | --- | --- | --- | --- | --- | --- | --- | --- | --- | --- | --- |
| < 10 | 112 | Cc1nc(C(=O)Nc2ccc(C)c(CCc3cc(Nc4cnccn4)[nH]n3)c2)c(C(F)(F)F)o1 [Compound 6, 2-methyl-N-(4-methyl-3-(2-(5-(pyrazin-2-ylamino)-1H-pyrazol-3-yl)ethyl)phenyl)-5-(trifluoromethyl)oxazole-4-carboxamide] |  |  | 3 | 3 |  |  | 2670 |  |  | ne | ne | COX2 gene expression, no effect (COX2; 24 h): ne; IC50 (IL-6; [3]): 640 nM; IL-1β gene expression, percentage of inhibitory effect at the highest non toxic concentration (IL-1β; 1 μM): 1 μM 50%; ADAMTS-5 gene expression, percentage of inhibitory effect at the highest non toxic concentration (ADAMTS-5; 1 μM): 1 μM 28%; MMP13 gene expression, no effect (MMP13): ne |
| < 10 | 18 | Cc1nccnc1Nc1cc(CCc2cc(NC(=O)c3cccc(C(F)(F)F)c3)ccc2F)n[nH]1 [Compound 15, N-(4-fluoro-3-(2-(5-((3-methylpyrazin-2-yl)amino)-1H-pyrazol-3-yl)ethyl)phenyl)-3-(trifluoromethyl)benzamide] |  |  | 3 | 10 |  |  |  |  |  |  |  | COX2 gene expression, percentage of inhibitory effect at the highest non toxic concentration (COX2; 3 μM, 24 h): 3 μM 97%; IL-6 gene expression, percentage of inhibitory effect at the highest non toxic concentration (IL-6; 3 μM): 3 μM 100%; MMP3 gene expression, percentage of inhibitory effect at the highest non toxic concentration (MMP3; 3 μM): 3 μM 90%; IL-1β gene expression, percentage of inhibitory effect at the highest non toxic concentration (IL-1β; 3 μM): 3 μM 98%; ADAMTS-5 gene expression, percentage of inhibitory effect at the highest non toxic concentration (ADAMTS-5; 3 μM): 3 μM 96%; inhibition at 1 µM ([2]; Bos taurus, 1 μM, read-out: Bovine cartilage degradation induced by IL-1α, % inhibitory effect at max concentration): 96%; Inhibitory effect on the GAG release ([2]; at max concentration): 95-100%; MMP13 gene expression, percentage of inhibitory effect at the highest non toxic concentration (MMP13; 3 μM): 3 μM 99% |
